ChEMBL document CHEMBL1201862, “PubChem BioAssay data set” (2004)
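Each compound was tested at five concentrations against cells in 96-well plates for 48 hours. Here, GI50 denotes the concentration required for 50% inhibition of growth.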 The source made the active and inactive calls. Cut-off read from the data, not from the text of the source: active = GI50 up to about 1.1 µM and inactive = higher.

How the values were obtained:
Experiment in all cases: growth of human tumour cells (NCI), 48 h
Malme-3M = tested on: Malme-3M
IGROV-1 = tested on: IGROV-1
HCT-15 = tested on: HCT-15
NCI-H460 = tested on: NCI-H460
NCI-H226 = tested on: NCI-H226
SNB-75 = tested on: SNB-75
CAKI-1 = tested on: CAKI-1
OVCAR-8 = tested on: OVCAR-8
HOP-92 = tested on: HOP-92
SK-OV-3 = tested on: SK-OV-3
KM12 = tested on: KM12
OVCAR-5 = tested on: OVCAR-5
COLO 205 = tested on: COLO 205
SK-MEL-28 = tested on: SK-MEL-28
U-251 = tested on: U-251
TK-10 = tested on: TK-10
SK-MEL-2 = tested on: SK-MEL-2
HL-60 = tested on: HL-60
M14 = tested on: M14

Row | SMILES | GI50 (Malme-3M) | GI50 (IGROV-1) | GI50 (HCT-15) [µM] | GI50 (NCI-H460) | GI50 (NCI-H226) | GI50 (SNB-75) | GI50 (CAKI-1) | GI50 (OVCAR-8) | GI50 (HOP-92) | GI50 (SK-OV-3) | GI50 (KM12) | GI50 (OVCAR-5) | GI50 (COLO 205) | GI50 (SK-MEL-28) | GI50 (U-251) | GI50 (TK-10) | GI50 (SK-MEL-2) | GI50 (HL-60) | GI50 (M14)
1 | Cc1cc(O)nc(NNC(C#N)c2ccc(N(C)C)cc2)n1 (stereo unspecified) | > 100 µM (inactive) | > 100 µM (inactive) | > 100 | > 100 µM (inactive) | > 100 µM (inactive) | > 100 µM (inactive) | > 100 µM (inactive) | > 100 µM (inactive) | > 100 µM (inactive) | > 100 µM (inactive) | > 100 µM (inactive) | > 100 µM (inactive) | > 100 µM (inactive) | > 100 µM (inactive) | > 100 µM (inactive) | > 100 µM (inactive) | > 100 µM (inactive) | > 100 µM (inactive) | > 100 µM (inactive)
2 | CCOC(=O)C(=Cc1cc(OC)ccc1OC)C(=O)OCC | 10.9 µM (inactive) | 23.8 µM (inactive) | 5.71 | 30.2 µM (inactive) | 10.6 µM (inactive) | 1.67 µM (inactive) | 13.6 µM (inactive) | 4.72 µM (inactive) | 3.2 µM (inactive) | 15.8 µM (inactive) | 6.53 µM (inactive) | 6.27 µM (inactive) | 4.88 µM (inactive) | 4.71 µM (inactive) | 4.79 µM (inactive) | > 10 µM (inactive) | 4.75 µM (inactive) | 1.96 µM (inactive) | 11.6 µM (inactive)
3 | COC(=O)C(=O)C(C(=O)C(=O)Nc1ccc(F)cc1)c1nc2ccc([N+](=O)[O-])cc2nc1O (stereo unspecified) | > 100 µM (inactive) | > 100 µM (inactive) | > 100 | > 100 µM (inactive) | > 100 µM (inactive) | > 100 µM (inactive) | > 100 µM (inactive) | > 100 µM (inactive) | > 100 µM (inactive) | > 100 µM (inactive) | > 100 µM (inactive) | > 100 µM (inactive) | > 100 µM (inactive) | > 100 µM (inactive) | > 100 µM (inactive) | > 100 µM (inactive) | – | > 100 µM (inactive) | > 100 µM (inactive)
4 | CCCCN(CCCC)CC(C(=O)Nc1ccc([N+](=O)[O-])cc1[N+](=O)[O-])/C(C)=N\NC(=O)C[N+](C)(C)C (stereo unspecified) | > 100 µM (inactive) | > 100 µM (inactive) | 46.8 | 55.7 µM (inactive) | > 100 µM (inactive) | 29 µM (inactive) | 42.7 µM (inactive) | > 100 µM (inactive) | 33 µM (inactive) | > 100 µM (inactive) | > 100 µM (inactive) | > 100 µM (inactive) | 35.7 µM (inactive) | > 100 µM (inactive) | > 100 µM (inactive) | > 100 µM (inactive) | > 100 µM (inactive) | > 100 µM (inactive) | > 100 µM (inactive)
5 | CC1CC(=O)C(CC(=O)O)C1C(C(=O)C(=O)Nc1c(C#N)cccc1[N+](=O)[O-])[N+](=O)[O-] (stereo unspecified) | > 100 µM (inactive) | > 100 µM (inactive) | > 100 | > 100 µM (inactive) | > 100 µM (inactive) | > 100 µM (inactive) | > 100 µM (inactive) | > 100 µM (inactive) | 82.2 µM (inactive) | > 100 µM (inactive) | > 100 µM (inactive) | > 100 µM (inactive) | > 100 µM (inactive) | > 100 µM (inactive) | > 100 µM (inactive) | > 100 µM (inactive) | > 100 µM (inactive) | > 100 µM (inactive) | > 100 µM (inactive)
6 | CN(CCO)c1nc2c(c(=O)[nH]1)CNCC2 | > 100 µM (inactive) | > 100 µM (inactive) | > 100 | > 100 µM (inactive) | > 100 µM (inactive) | 32.8 µM (inactive) | > 100 µM (inactive) | > 100 µM (inactive) | > 100 µM (inactive) | > 100 µM (inactive) | > 100 µM (inactive) | > 100 µM (inactive) | > 100 µM (inactive) | > 100 µM (inactive) | > 100 µM (inactive) | > 100 µM (inactive) | > 100 µM (inactive) | > 100 µM (inactive) | > 100 µM (inactive)
7 | Cc1ccccc1-n1c(=O)sc2c(=O)n(-c3ccccc3)c(=S)[nH]c21 | > 100 µM (inactive) | > 100 µM (inactive) | > 100 | > 100 µM (inactive) | > 100 µM (inactive) | > 100 µM (inactive) | > 100 µM (inactive) | > 100 µM (inactive) | > 100 µM (inactive) | > 100 µM (inactive) | > 100 µM (inactive) | 95.5 µM (inactive) | > 100 µM (inactive) | > 100 µM (inactive) | > 100 µM (inactive) | – | > 100 µM (inactive) | > 100 µM (inactive) | > 100 µM (inactive)
